pKd: −log10 of the molar value. “Also recorded” adds a separate entry of the source. Where two headings read alike, the source gives them in different places. Each block holds one compound with its values, some of them ahead of it. Non-standard residues stand in square brackets, D forms with d. No end group written: not given here. *: point of attachment. FITC = O=C1OC2(c3ccc(O)cc3Oc3cc(O)ccc32)c2ccc(NC(=S)*)cc21; Ahx = NCCCCCC(=O)O
Legend:
[1] = test system: microtubules in living cells; settings: cited from earlier work; for labeling of microtubules in living cells (in words): microtubule‐targeting agents
Text: The property of microtubules is regulated by a number of microtubule‐binding proteins, ^8 , ^9 , ^10 , ^11 , ^12 , ^13 of which tau is well‐characterized because of its abundance, particularly in brain tissues. ^14 , ^15 , ^16 The N‐terminus of tau is a projection domain, followed by a proline‐rich region and a C‐terminal microtubule‐assembly domain. ^17 The microtubule‐assembly domain, which contains four imperfect sequence repeats, is responsible for the binding of tau to microtubules. […] In this study, we tested another tau‐derived peptide for its ability to monitor microtubules.

microtubules = test system: microtubules; design: method as in 2 sources, ref 26 = [26]; PMID 9190213; doi:10.1091/mbc.8.2.353; 26 Goode BL , Denis PE , Panda D et al Functional interactions between the proline‐rich and repeat regions of tau enhance microtubule binding and assembly . Mol Biol Cell 1997; 8 : 353 – 65 . 9190213 ||| ref 27 = [27]; PMID 19186939; doi:10.1021/bm801224q; 27 Cao B , Mao C . Identification of microtubule‐binding domains on microtubule‐associated proteins by major coat phage display technique . Biomacromolecules 2009; 10 : 555 – 64 . 19186939 10.1021/bm; settings: cited from earlier work
tubulin dimers = experiment: Microscale thermophoresis affinity determination; type: binding; settings: 1 μM peptide, series dilution of tubulin
Experimental: All microscale thermophoresis measurements were performed using Monolith NTTM hydrophobic capillaries and a Monolith NT.115 instrument (NanoTemper) according to the manufacturer's instructions. The peptide was prepared with varying concentrations for pretest to ensure final proper concentration. The fluorescence intensity value should be more than 200. A series of dilution of the tubulin dimers was then added into the capillaries. The affinity of the peptide to tubulin dimers was examined using the Monolith NT.115 instrument.
(§1) Tubulin from HeLa cells was purified using a TOG‐based affinity column. ^20 Briefly, cells were resuspended in an equal volume of BRB80 buffer containing 3 μL of benzonase and 1 mM DTT. Cells were lysed on ice and centrifuged at 40 000 rpm for 30 minutes at 4°C. The supernatant was filtered through a 0.45 μm Milliex‐HV polyvinylidene fluoride membrane, and then loaded into a TOG column preequilibrated with BRB80 buffer. The tubulin was eluted with BRB80 buffer, and the crude extract was further purified through the cycle of polymerization and depolymerization as previously described. ^22
Figure 2 Affinity determination of the peptide to tubulin. 1 μM of the peptide and a series dilution of tubulin were added into the capillary tube, and the fluorescence intensity was then determined by a Monolith NT.115 instrument.

polymerized microtubules = experiment: Labeling of polymerized microtubules in solution (fluorescence microscopy); type: binding; settings: 1 μM peptide added to polymerized rhodamine‐labeled microtubules, five minutes incubation, fluorescence microscope
Experimental: as §1
Rhodamine‐labeled tubulin (5%) was mixed into tubulin purified from HeLa cells in the PEMG buffer (100 mM PIPES, 1 mM EGTA, 1 mM MgSO4, 1 mM GTP, pH 6.8). Next, the mixture was placed on ice for five minutes and then incubated at 37°C for 30 minutes. The polymerized reaction was terminated by adding 400 μL of PEMG buffer. […] The pellet was resuspended with 300 μL of the PEMG buffer supplemented with 20 μM paclitaxel and then added into a slide chamber for imaging under a fluorescence microscope.
Figure 3 The peptide was able to label the microtubules in solution. (a) The tubulin was purified from HeLa cells through cycle process, and the purity was determined by SDS‐PAGE. […] After five minutes incubation, the microtubule was imaged under a fluorescence microscope. […]

HeLa cells = experiment: Living cell assay: entry of peptide into cells; type: cell-based; settings: 15 μM peptide, 30 minutes, Hoechst 33258, fluorescence microscope
Experimental: (§2) HeLa cells were cultured in Dulbecco's modified Eagle's medium supplemented with 10% fetal bovine serum and maintained at 37°C in a humidified 5% CO2 environment. The peptide was added into the Hela cells, and incubated for 30 minutes. The nuclei were stained with Hoechst 33258 (Beyotime). Cells were imaged with a fluorescence microscope (Leica, Germany).  Figure 4 Examination of the peptide in tracing microtubules in living cells. HeLa cells were treated with 15 μM of the peptide or control peptide, together with Hoechst 33258, and 30 minutes later, the cells were imaged with a fluorescence microscope. Scale bar: 5 μm.

[2] = test system: microtubules in HeLa cells; experiment: Living cell assay: tracing of microtubules; type: cell-based; settings: 15 μM peptide, 30 minutes, Hoechst 33258, fluorescence microscope
Experimental: as §2

[3] = target: fluorescent tau-derived peptide (FITC-Ahx-(rR)3R2-GGG-KKVAVVR); experiment: MST; 1 μM of the fluorescent peptide constant, a series dilution of tubulin dimers; Monolith NT.115, hydrophobic capillaries

Compound: N=C(N)c1ccc(-c2cc3ccc(C(=N)N)cc3[nH]2)cc1 [4',6‐diamidino‐2‐phenylindole (DAPI), 4',6‐diamidino‐2‐phenylindole]
tracing microtubules in living cells (in words) ([1]; due to the lack of specificity and the complexity of cellular contents): unable to trace microtubules in living cells

Compound: COc1cc2c(c(OC)c1OC)-c1ccc(OC)c(=O)cc1[C@@H](NC(C)=O)CC2 [colchicine]
labeling of microtubules in living cells (in words) [1]: able to label microtubules in living cells

Compound: CC(=O)O[C@H]1C(=O)[C@@]2(C)[C@H]([C@H](OC(=O)c3ccccc3)[C@]3(O)C[C@H](OC(=O)[C@H](O)[C@@H](NC(=O)c4ccccc4)c4ccccc4)C(C)=C1C3(C)C)[C@]1(OC(C)=O)CO[C@@H]1C[C@@H]2O [taxol]
labeling of microtubules in living cells (in words) [1]: able to label microtubules in living cells

Compound: KKVAVVR
microtubule binding (in words) (microtubules; small sequence within the proline‐rich region of tau): critical for efficient microtubule binding

Compound: KKVAVVRTPP
microtubule binding (in words) (microtubules; peptide with VxxVxxP motif): able to bind microtubules

binding to tubulin dimers (in words) (tubulin dimers): specifically bound to tubulin
disassociation constant (Kd) of the peptide with tubulin (tubulin dimers; Monolith NT.115, hydrophobic capillaries): 4.68 ± 0.08 µM
Compound: tau‐derived peptide: FITC dye, cell‐penetrating peptide (rR)3R2, spacer (GGG), microtubule recognition unit (KKVAVVR), with aminohexanoic (Ahx) acid ({FITC-Ahx}-[dR]R[dR]R[dR]RRRGGGKKVAVVR)
binding to tubulin dimers (in words) (tubulin dimers; listed as the peptide): bound tubulin dimers in a dose‐dependent manner; also recorded: relatively low affinity
labeling of microtubules in solution / binding to microtubules (in words) (polymerized microtubules; listed as modified heptapeptide from tau): binds microtubules specifically and noncovalently
labeling of microtubules in solution / binding to microtubules (in words) (polymerized microtubules; listed as the peptide): able to successfully label the microtubules in solution
entry into living cells (in words) (HeLa cells): delivered successfully into HeLa cells
tracing of microtubule filaments in living cells (in words) [2]: no clear microtubule filaments were observed

pKd [3]: 5.33
Compound: tubulin dimers purified from HeLa cells (from UniProt P68363 1-451; P07437 1-444) (complex)

From publication PMC7529580, “Modified heptapeptide from tau binds both tubulin and microtubules” (Thoracic Cancer, 2020)
